US4552872A, “Penetrating topical pharmaceutical compositions containing corticosteroids” (priority 1984, dated 1985)

Legend:
dermatitis = experiment: Topical treatment of dermatitis in a human, composition of Example 32; format: in vivo; conditions: 5 mg/cm^2 of skin three times daily for five days; noted after 48 hours
Protocol: The above composition is applied at the afflicted situs of a human afflicted with dermatitis at a rate of 5 mg of composition/cm^2 of skin three times daily for a period of five days.

[1] = Percutaneous penetration study, Franz diffusion apparatus, human skin (*); format: in vitro ADME; conditions: Example 8; for reduction of penetration on addition of the proscribed compound, in words: compared with octanoic acid (reduces penetration by 50%)
Protocol: The following Penetration Studies were carried out in the following manner. […] A normal saline solution is added to the lower diffusion cell, abutting the subcutaneous side of the skin. The test composition (comprising a solution of active or actives added to the carrier at the indicated formulation in a conventional manner by thoroughly mixing) is added to the diffusion cell abutting the epidermal side of the skin at the levels indicated.
This cell assembly is kept at a constant temperature of about 31° C. At appropriate or desired intervals (these are the time designations given in the following examples) each diffusion cell assembly is opened and the diffusate from the cell abutting the subcutaneous side of the skin is withdrawn. Drug actives in a diffusate is measured using standard analytical techniques. Each trial is run on a separate sample of skin.
All ratios represented by A/B, or A/B/C, and all percentages, are by weight. The compounds described as C12-18 OH are the straight chain, saturated, normal alcohols. EtOH is ethanol. The term mcg=microgram.

[2] = compared with hydrocortisone; cited from earlier work

SMILES	reduction of inflammation (dermatitis)	reduction of penetration on addition of the proscribed compound, in words [1]	also measured
CC1(C)O[C@@H]2C[C@H]3[C@@H]4C[C@H](F)C5=CC(=O)C=C[C@]5(C)[C@@]4(F)[C@@H](O)C[C@]3(C)[C@]2(C(=O)CO)O1 [fluocinolone, acetonide, Fluocinolone acetonide]	Substantially similar results	–	–
CCCCCCCC(=O)O [octanoic acid]	–	–	reduction of penetration on addition of the proscribed compound ([1]; 1% Triamcinolone in Propylene Glycol + 2% C14 OH, human skin, 0-72 hrs.): 50%
COc1c(C(=O)OCC(=O)[C@@]23OC(C)(C)O[C@@H]2C[C@H]2[C@@H]4CCC5=CC(=O)C=C[C@]5(C)[C@@]4(F)[C@@H](O)C[C@@]23C)cc2ccccc2c1Cc1c(OC)c(C(=O)OCC(=O)[C@@]23OC(C)(C)O[C@@H]2C[C@H]2[C@@H]4CCC5=CC(=O)C=C[C@]5(C)[C@@]4(F)[C@@H](O)C[C@@]23C)cc2ccccc12 [flupamesone]	Substantially similar results	–	–
C[C@]12C=CC(=O)C=C1CC[C@@H]1[C@@H]2[C@@H](O)C[C@@]2(C)[C@H]1CC[C@]2(O)C(=O)CO [prednisolone]	–	–	change of mineralocorticoid effects by introduction of a double bond at the 1,2 position into hydrocortisone [2]: reducing mineralo corticoid effects
CCCCCCCCCC(=O)O [decanoic acid]	–	Substantially similar results	–
CCCCCCCCCCCCCCCCCCO [stearyl alcohol]	–	Substantially similar results	–
CCCCCCCCCCCCCCCCO [cetyl alcohol]	–	Substantially similar results	–
CC1(C)O[C@@H]2C[C@H]3[C@@H]4CCC5=CC(=O)C=C[C@]5(C)[C@@]4(F)[C@@H](O)C[C@]3(C)[C@]2(C(=O)CO)O1 [triamcinolone, Triamcinolone acetonide]	Substantially similar results	–	–
CCCCC(=O)O[C@]1(C(=O)CO)[C@@H](C)C[C@H]2[C@@H]3CCC4=CC(=O)C=C[C@]4(C)[C@@]3(F)[C@@H](O)C[C@@]21C [betamethasone valerate]	Substantially similar results	–	–
